Earlier results in patent publication US8933122B2, “Use of cationic surfactants as sporicidal agents” (Laboratorios Miret, S.A., priority 2008, dated 2015).

System: Leuconostoc mesenteroides CETC 912
Settings: Gram + Bacteria; cited from earlier work

CCCCCCCCCCCC(=O)N[C@@H](CCCN=C(N)N)C(=O)OCC.Cl [LAE, ethyl ester of the lauramide of the arginine monohydrochloride]
M.I.C.: 32 ppm
